Assay results: patent publication US20120115845A1, “THERAPEUTIC AGENTS” (priority 2007, published 2012)

Assays:
[1] = molecular target: T1, human GHS receptor (Homo sapiens, UniProt Q92847); assay: Ghrelin IP1 agonist assay (IP1 HTRF); format: cell-based; design: expressed in transfected cells; host or cells: HEK293s; details: for Emax: 2 h, agonist effect as % maximal effect of GHRP-6 (5 μM), read-out: h IP1 ag %; for EC50: HEK293s cells stably expressing human GHS receptor, 2 hours at 37° C., read-out: h IP1 ag EC50
T1 sequence (Q92847 whole entry): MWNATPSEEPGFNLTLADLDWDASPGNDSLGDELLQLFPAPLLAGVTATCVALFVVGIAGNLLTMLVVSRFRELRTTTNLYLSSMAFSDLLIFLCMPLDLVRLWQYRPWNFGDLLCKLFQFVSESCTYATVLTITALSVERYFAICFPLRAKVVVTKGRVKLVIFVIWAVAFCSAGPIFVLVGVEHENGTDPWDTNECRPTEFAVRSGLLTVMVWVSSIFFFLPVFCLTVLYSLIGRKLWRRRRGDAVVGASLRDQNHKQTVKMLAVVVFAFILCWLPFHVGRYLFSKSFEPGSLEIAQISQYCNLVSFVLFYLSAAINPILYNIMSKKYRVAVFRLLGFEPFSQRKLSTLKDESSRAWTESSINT
Procedure: In HEK293s cells stably expressing human GHS receptor (In-house), agonist activity was assessed by measuring intracellular myo-Inositol 1 phosphate (IP1) using the IP1 HTRF assay kit (Cisbio International).
Cells were harvested using accutase (Sigma), spun down at 1000 rpm for 5 minutes and resuspended in stimulation buffer (as above) containing 0.02% fatty acid free BSA at a density of 1.43E6cells/ml.
Agonist effect of the compound was expressed as % maximal effect of GHRP-6 (5 μM: Bachem). Sigmoidal curves were fitted by Origin 7.5 Client and EC50 values determined.

[2] = molecular target: T1, human GHS receptor; assay: h bind IC50 (binding assay, Table 1); details: human receptor; Table 1

| Structure (SMILES) | Emax [1] | EC50 [1] | IC50 [2] |
| --- | --- | --- | --- |
| O=C(NC(=O)c1ccccc1Cl)Nc1nc2ccc(S(=O)(=O)CCN3CCOCC3)cc2s1 [Example 1, 2-Chloro-N-[[6-(2-morpholin-4-ylethylsulfonyl)benzothiazol-2-yl]carbamoyl]benzamide] | 24% | 29.2 nM | 64.4 nM |
| COCCNCCS(=O)(=O)c1ccc2nc(NC(=O)NC(=O)c3ccccc3Cl)sc2c1 [Example 2, 2-Chloro-N-[[6-[2-(2-methoxyethylamino)ethylsulfonyl]benzothiazol-2-yl]carbamoyl]benzamide] | 40.8% | 17.6 nM | 13.3 nM |
| CNCCS(=O)(=O)c1ccc2nc(NC(=O)NC(=O)c3ccccc3Cl)sc2c1 [Example 4, 2-Chloro-N-[[6-(2-methylaminoethylsulfonyl)benzothiazol-2-yl]carbamoyl]benzamide] | 58.5% | 9.46 nM | 77.3 nM |
| O=C(NC(=O)c1ccccc1Cl)Nc1nc2ccc(S(=O)(=O)CCN3CCNCC3)cc2s1 [Example 8, 2-Chloro-N-[[6-(2-piperazin-1-ylethylsulfonyl)benzothiazol-2-yl]carbamoyl]benzamide] | 39.9% | 36.4 nM | 69.6 nM |
| CC(C)NCCS(=O)(=O)c1ccc2nc(NC(=O)NC(=O)c3ccccc3Cl)sc2c1 [Example 10, 2-Chloro-N-[[6-[2-(propan-2-ylamino)ethylsulfonyl]benzothiazol-2-yl]carbamoyl]benzamide] | 44.1% | 18.9 nM | 27.3 nM |
| O=C(NC(=O)c1ccccc1Cl)Nc1nc2ccc(S(=O)(=O)CCN3CCC3)cc2s1 [Example 13, N-[[6-[2-(Azetidin-1-yl)ethylsulfonyl]benzothiazol-2-yl]carbamoyl]-2-chloro-benzamide] | 52.5% | 55.5 nM | 162 nM |
| O=C(NC(=O)c1ccccc1Cl)Nc1nc2ccc(S(=O)(=O)CCNCCO)cc2s1 [Example 14, 2-Chloro-N-[[6-[2-(2-hydroxyethylamino)ethylsulfonyl]benzothiazol-2-yl]carbamoyl]benzamide] | 47.6% | 166 nM | 321 nM |
| O=C(NC(=O)c1ccccc1Cl)Nc1nc2ccc(S(=O)(=O)CCN3CC[C@H](F)C3)cc2s1 [Example 16, 2-Chloro-N-[[6-[2-[(3S)-3-fluoropyrrolidin-1-yl]ethylsulfonyl]benzothiazol-2-yl]carbamoyl]benzamide] | 34.1% | 64.4 nM | 100 nM |
| O=C(NC(=O)c1ccccc1Cl)Nc1nc2ccc(S(=O)(=O)CCNC3CCCC3)cc2s1 [Example 17, 2-Chloro-N-[[6-[2-(cyclopentylamino)ethylsulfonyl]benzothiazol-2-yl]carbamoyl]benzamide] | 42.1% | 6.03 nM | 80.4 nM |
| CC1CCC(C)N1CCS(=O)(=O)c1ccc2nc(NC(=O)NC(=O)c3ccccc3Cl)sc2c1 (stereo not drawn) [Example 18, 2-Chloro-N-[[6-[2-(2,5-dimethylpyrrolidin-1-yl)ethylsulfonyl]benzothiazol-2-yl]carbamoyl]benzamide] | 47% | 53.6 nM | 252 nM |
| O=C(NC(=O)c1ccccc1Cl)Nc1nc2ccc(S(=O)(=O)CCN3CCC(F)(F)C3)cc2s1 [Example 21, 2-Chloro-N-[[6-[2-(3,3-difluoropyrrolidin-1-yl)ethylsulfonyl]benzothiazol-2-yl]carbamoyl]benzamide] | 16.9% | 221 nM | 1680 nM |
| CC1CN(CCS(=O)(=O)c2ccc3nc(NC(=O)NC(=O)c4ccccc4Cl)sc3c2)CC(C)N1 (stereo not drawn) [Example 24, 2-Chloro-N-[[6-[2-(3,5-dimethylpiperazin-1-yl)ethylsulfonyl]benzothiazol-2-yl]carbamoyl]benzamide] | 54% | 6.43 nM | 25.3 nM |
| O=C(NC(=O)c1ccccc1Cl)Nc1nc2ccc(S(=O)(=O)CCNC3CCC3)cc2s1 [Example 25, 2-Chloro-N-[[6-[2-(cyclobutylamino)ethylsulfonyl]benzothiazol-2-yl]carbamoyl]benzamide] | 34.7% | 13.8 nM | 189 nM |
| CN(CCS(=O)(=O)c1ccc2nc(NC(=O)NC(=O)c3ccccc3Cl)sc2c1)CC1CCCO1 (stereo not drawn) [Example 26, 2-Chloro-N-[[6-[2-(methyl-(oxolan-2-ylmethyl)amino)ethylsulfonyl]benzothiazol-2-yl]carbamoyl]benzamide] | 26.1% | 623 nM | 428 nM |
| O=C(NC(=O)c1ccccc1Cl)Nc1nc2ccc(S(=O)(=O)CCCN3CCC3)cc2s1 [Example 147, N-[[6-[3-(Azetidin-1-yl)propylsulfonyl]benzothiazol-2-yl]carbamoyl]-2-chloro-benzamide] | – | – | 78.8 nM |
| O=C(NC(=O)c1ccccc1Cl)Nc1nc2ccc(S(=O)(=O)CCCN3CCCC3)cc2s1 [Example 149, 2-Chloro-N-[[6-(3-pyrrolidin-1-ylpropylsulfonyl)benzothiazol-2-yl]carbamoyl]benzamide] | – | – | 52.2 nM |

| Structure (SMILES) | Emax [1] | EC50 [1] | IC50 [2] |
| --- | --- | --- | --- |
| O=C(NC(=O)c1ccccc1Cl)Nc1nc2ccc(S(=O)(=O)CCCN3CCC(F)(F)C3)cc2s1 [Example 154, 2-Chloro-N-[[6-[3-(3,3-difluoropyrrolidin-1-yl)propylsulfonyl]benzothiazol-2-yl]carbamoyl]benzamide] | – | – | 117 nM |
| O=C(NC(=O)c1ccccc1Cl)Nc1nc2ccc(S(=O)(=O)C[C@H]3CCCN3CC3CC3)cc2s1 [Example 156, 2-Chloro-N-[[6-[[(2R)-1-(cyclopropylmethyl)pyrrolidin-2-yl]methylsulfonyl]benzothiazol-2-yl]carbamoyl]benzamide] | – | – | 64 nM |
| O=C(NC(=O)c1ccccc1Cl)Nc1nc2ccc(S(=O)(=O)CCCN3CCC(F)C3)cc2s1 (stereo not drawn) [Example 157, 2-Chloro-N-[[6-[3-(3-fluoropyrrolidin-1-yl)propylsulfonyl]benzothiazol-2-yl]carbamoyl]benzamide] | – | – | 78.5 nM |
| O=C(NC(=O)c1ccccc1Cl)Nc1nc2ccc(S(=O)(=O)CCCN3CCC(F)(F)CC3)cc2s1 [Example 158, 2-Chloro-N-[[6-[3-(4,4-difluoro-1-piperidyl)propylsulfonyl]benzothiazol-2-yl]carbamoyl]benzamide] | – | – | 104 nM |
| O=C(NC(=O)c1ccccc1Cl)Nc1nc2ccc(S(=O)(=O)CCCN3CCC(O)C3)cc2s1 (stereo not drawn) [Example 160, 2-Chloro-N-[[6-[3-(3-hydroxypyrrolidin-1-yl)propylsulfonyl]benzothiazol-2-yl]carbamoyl]benzamide] | – | – | 29.6 nM |
| CCN1CCC(S(=O)(=O)c2ccc3nc(NC(=O)NC(=O)c4ccccc4Cl)sc3c2)C1 (stereo not drawn) [Example 163, 2-Chloro-N-[[6-(1-ethylpyrrolidin-3-yl)sulfonylbenzothiazol-2-yl]carbamoyl]benzamide] | – | – | 613 nM |
| CN1CCC(S(=O)(=O)c2ccc3nc(NC(=O)NC(=O)c4ccccc4Cl)sc3c2)C1 (stereo not drawn) [Example 167, 2-Chloro-N-[[6-(1-methylpyrroldin-3-yl)sulfonylbenzothazol-2-yl]carbamoyl]benzamide] | – | – | 109 nM |
| CN1CCC[C@@H]1CS(=O)(=O)c1ccc2nc(NC(=O)NC(=O)c3ccccc3Cl)sc2c1 [Example 169, 2-Chloro-N-[[6-[[(2R)-1-methylpyrrolidin-2-yl]methylsulfonyl]benzothiazol-2-yl]carbamoyl]benzamide] | – | – | 151 nM |
| CC(C)N1CCC(S(=O)(=O)c2ccc3nc(NC(=O)NC(=O)c4ccccc4Cl)sc3c2)CC1 [Example 174, 2-Chloro-N-[[6-[(1-propan-2-yl-4-piperidyl)sulfonyl]benzothiazol-2-yl]carbamoyl]benzamide] | – | – | 139 nM |
| O=C(NC(=O)c1ccccc1Cl)Nc1nc2ccc(S(=O)(=O)C3CCNCC3)cc2s1 [Example 176, 2-Chloro-N-[[6-(4-piperidylsulfonyl)benzothiazol-2-yl]carbamoyl]benzamide] | – | – | 13.2 nM |
| CN1CCC(S(=O)(=O)c2ccc3nc(NC(=O)NC(=O)c4ccccc4Cl)sc3c2)CC1 [Example 184, 2-Chloro-N-[[6-[(1-methyl-4-piperidyl)sulfonyl]benzothiazol-2-yl]carbamoyl]benzamide] | – | – | 33.7 nM |
| CC(C)N1CC(S(=O)(=O)c2ccc3nc(NC(=O)NC(=O)c4ccccc4Cl)sc3c2)C1 [Example 186, 2-Chloro-N-[[6-(1-propan-2-ylazetidin-3-yl)sulfonylbenzothiazol-2-yl]carbamoyl]benzamide] | – | – | 34.1 nM |
| COc1cc(Cl)c(C(=O)NC(=O)Nc2nc3ccc(S(=O)(=O)C4CCNCC4)cc3s2)cc1-n1cccn1 [Example 263, 2-chloro-4-methoxy-N-(6-(piperidin-4-ylsulfonyl)benzo [d]thiazol-2-ylcarbamoyl) 5-(1H-pyrazol-1-yl)benzamide] | – | – | 1.12 nM |
| CC(C)Oc1cc(Cl)c(C(=O)NC(=O)Nc2nc3ccc(S(=O)(=O)C4CCN(C)CC4)cc3s2)cc1-n1cccn1 [Example 267, 2-chloro-4-isopropoxy-N-(6-(1-methylpiperidin-4-ylsulfonyl)benzo [d]thiazol-2-ylcarbamoyl) 5-(1H-pyrazol-1-yl)benzamide] | – | – | 1.5 nM |
| CN(C)C1CC(Oc2ccc(Cl)c(C(=O)NC(=O)Nc3nc4ccc(S(C)(=O)=O)cc4s3)c2)C1 (stereo not drawn) [Example 269, 2-Chloro-5-(3-dimethylaminocyclobutoxy)-N-[(6-methylsulfonyl-1,3-benzothiazol-2-yl)carbamoyl]benzamide] | – | – | 8730 nM |
| CN(C)CC1CCN(c2ccc(Cl)c(C(=O)NC(=O)Nc3nc4ccc(S(C)(=O)=O)cc4s3)c2)C1 (stereo not drawn) [Example 270, 2-Chloro-5-[3-(dimethylaminomethyl)pyrrolidin-1-yl]-N-[(6-methylsulfonyl-1,3-benzothiazol-2-yl)carbamoyl]benzamide] | – | – | 762 nM |
